Results: the supplement of paper PMC10307832

Compound: CCN1CCN(c2ccc(Nc3cc(N(C)C(=O)Nc4c(Cl)c(OC)cc(OC)c4Cl)ncn3)cc2)CC1 [BGJ398] + O=C(c1cc(Cc2n[nH]c(=O)c3ccccc23)ccc1F)N1CCN(C(=O)C2CC2)CC1 [Olaparib] (partner 8 µM)
Experiment: relative viability (nuclei count vs DMSO), 5 days (fraction); higher = more cells survive
Conditions: first compound 0.01 µM
Procedure, shortened: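 Dosing by pin tool came one day after lung cancer cell lines were seeded in 1536-well plates, using either one drug or a fixed anchor-drug dose plus five library-drug doses (not always all listed) in √10 steps. After 5 days, nuclei were counted on 4× images. Relative viability is treated-well nuclei count divided by vehicle-well nuclei count, and values are medians of duplicate plates.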

Cell Line | relative viability
NCI-H2087 | 0.46
NCI-H2342 | 0.517
SK-MES-1 | 0.709
H3255 | 0.527
COR-L23 | 0.337
COR-L 105 | 0.627
IA-LM | 0.772
LOU-NH91 | 0.884
ChaGo-K-1 | 0.42
NCI-H2170 | 0.605
NCI-H2405 | 0.818
HOP-62 | 0.291
HCC-44 | 0.963
A549 | 0.341
SW 900 | 0.867
LU99A | 0.266
BEN | 1.09
HARA | 0.983
NCI-H1648 | 0.658
HCC-78 | 0.785
NCI-H322M | 0.801
LCLC-97TM1 | 0.294
NCI-H2009 | 0.614
A-427 | 0.746
NCI-H661 | 0.7

Cell Line | relative viability
NCI-H1734 | 0.504
NCI-H460 | 0.39
NCI-H2347 | 0.539
SK-LU-1 | 0.461
NCI-H1395 | 0.441
201T | 0.907
NCI-H1915 | 0.231
HCC-827 | 0.468
LXF-289 | 1.01
NCI-H23 | 0.333
NCI-H1299 | 0.961
NCI-H647 | 0.51
CAL-12T | 0.688
NCI-H1651 | 0.183
EPLC-272H | 0.626
NCI-H2228 | 0.606
NCI-H1792 | 0.494
NCI-H1355 | 0.714
NCI-H3122 | 0.628
NCI-H1437 | 0.687
NCI-H1755 | 0.813
NCI-H2023 | 0.486
HCC-15 | 0.699
NCI-H1793 | 0.828
PC-14 | 0.322

Same assay, conditions: first compound 0.03162 µM

Cell Line | relative viability
NCI-H522 | 0.684
NCI-H727 | 0.629
NCI-H1650 | 0.838
EBC-1 | 0.717
NCI-H1703 | 0.396
NCI-H1993 | 1.08
SW 1573 | 0.388
NCI-H838 | 0.754
LCLC-103H | 0.787
NCI-H520 | 0.355
NCI-H2126 | 0.864
EMC-BAC-2 | 0.568
NCI-H2085 | 0.773
Calu-6 | 0.605
HCC-366 | 0.378
NCI-H1666 | 0.77
NCI-H596 | 0.648
LK-2 | 0.532
NCI-H2087 | 0.744
NCI-H2342 | 0.46
SK-MES-1 | 0.754
H3255 | 0.537
COR-L23 | 0.337

Cell Line | relative viability
COR-L 105 | 0.647
IA-LM | 0.841
LOU-NH91 | 0.707
ChaGo-K-1 | 0.423
NCI-H2170 | 0.584
NCI-H2405 | 0.954
HOP-62 | 0.525
HCC-44 | 0.952
A549 | 0.436
SW 900 | 0.822
LU99A | 0.26
BEN | 1.19
HARA | 0.651
HCC-78 | 0.838
NCI-H322M | 0.73
LCLC-97TM1 | 0.393
NCI-H2009 | 0.759
A-427 | 0.713
NCI-H441 | 0.619
NCI-H661 | 0.737
NCI-H1734 | 0.622
NCI-H460 | 0.42
NCI-H2347 | 0.546

Cell Line | relative viability
SK-LU-1 | 0.579
NCI-H1395 | 0.426
201T | 0.791
NCI-H1915 | 0.285
LXF-289 | 0.973
NCI-H23 | 0.297
NCI-H1299 | 0.971
NCI-H647 | 0.643
CAL-12T | 0.819
NCI-H1651 | 0.169
EPLC-272H | 0.829
NCI-H2228 | 0.765
NCI-H1792 | 0.351
NCI-H1355 | 0.769
NCI-H3122 | 0.611
NCI-H1437 | 0.629
NCI-H1755 | 0.906
NCI-H2023 | 0.465
HCC-15 | 0.749
NCI-H1793 | 0.721
PC-14 | 0.346

Same assay, conditions: first compound 0.1 µM

Cell Line | relative viability
NCI-H522 | 0.607
NCI-H727 | 0.717
NCI-H1650 | 0.786
EBC-1 | 0.679
NCI-H1703 | 0.379
NCI-H1993 | 1.01
SW 1573 | 0.45
NCI-H838 | 0.749
LCLC-103H | 0.726
NCI-H520 | 0.314
NCI-H2126 | 0.964
EMC-BAC-2 | 0.519
NCI-H2085 | 0.711
Calu-6 | 0.578
HCC-366 | 0.422
NCI-H1666 | 0.81
NCI-H596 | 0.645
LK-2 | 0.374
NCI-H2087 | 0.574
NCI-H2342 | 0.541
SK-MES-1 | 0.786
H3255 | 0.604
COR-L23 | 0.308

Cell Line | relative viability
COR-L 105 | 0.687
IA-LM | 0.917
LOU-NH91 | 0.92
ChaGo-K-1 | 0.437
NCI-H2170 | 0.633
NCI-H2405 | 0.926
HOP-62 | 0.538
HCC-44 | 1.02
A549 | 0.6
SW 900 | 0.851
LU99A | 0.281
BEN | 1.18
HARA | 0.875
NCI-H1648 | 1.18
HCC-78 | 0.967
NCI-H322M | 0.761
LCLC-97TM1 | 0.443
NCI-H2009 | 0.697
A-427 | 0.761
NCI-H441 | 0.483
NCI-H661 | 0.822
NCI-H1734 | 0.627
